Reference: patent publication US20250019385A1, “SPIROCYCLIC ANNULATED 2-AMINO-3-CYANO THIOPHENES AND DERIVATIVES FOR THE TREATMENT OF CANCER” (Boehringer Ingelheim International GmbH, priority 2023, published 2025)
Converted amounts (≈) assume the structure as drawn. Where two headings read alike, the source gives them in different places.

Experiments:
[1] = target: KRAS (G12D)::SOS1 protein-protein interaction (Homo sapiens (Human), UniProt P01116, G12D); assay: KRAS::SOS1 AlphaScreen binding assay (KRAS G12D); conditions: GDP
Procedure, shortened: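 AlphaScreen assay with KRAS G12D (1-169, 6His/avi-tagged, 10 nM), GST-SOS1 564-1049 (5 nM) and GDP (10 μM) in PBS, 0.1% BSA, 0.05% Tween 20; compound up to 100 μM top concentration, eleven fivefold dilutions in duplicate. After 30 min, glutathione acceptor and streptavidin donor beads (10 μg/mL each) were added and signal read after a further 60 min at room temperature in the dark; IC50 from 4-parameter logistic fit.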

[2] = test system: Ba/F3 cells KRAS G12C; assay: Ba/F3 proliferation assay (KRAS G12C); format: cell-based; conditions: Mus musculus, BaF3, 72 h, AlamarBlue viability
Procedure, shortened: (§1)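 Ba/F3 cells retrovirally transduced with KRAS G12 mutant, puromycin-selected, grown IL-3-independent; seeded in RPMI-1640 + 10% FCS without IL-3. Logarithmic compound dose series in duplicate, 72 h at 37° C., AlamarBlue fluorescence as % of DMSO control; IC50 from four-parameter non-linear regression.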

[3] = Solubility measurement (DMSO solution precipitation method); format: physicochemical; conditions: aqueous buffer, kinetic from dmso stock
Procedure, shortened: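 A 10 mM DMSO stock was diluted to 250 μM final in McIlvaine buffer at pH 4.5 or 6.8, then shaken 24 h at ambient temperature. After filtering off precipitate, filtrate concentration was quantified by LC-UV against a fully dissolved reference in acetonitrile/water (1:1).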

[4] = test system: Ba/F3 cells KRAS G12V; assay: Ba/F3 proliferation assay (KRAS G12V); format: cell-based; conditions: Mus musculus, BaF3, 72 h, AlamarBlue viability
Procedure, shortened: as §1

[5] = test system: Ba/F3 cells KRAS G12D; assay: Ba/F3 proliferation assay (KRAS G12D); format: cell-based; conditions: Mus musculus, BaF3, 72 h, AlamarBlue viability
Procedure, shortened: as §1

[6] = McIlvaine buffer pH 4.5, 24 h, read-out: solubility pH 4.5
[7] = McIlvaine buffer pH 6.8, 24 h, read-out: solubility pH 6.8

Chain of KRAS (G12D)::SOS1 protein-protein interaction (P01116 other isoform, or with tags, fused parts or gaps G12D): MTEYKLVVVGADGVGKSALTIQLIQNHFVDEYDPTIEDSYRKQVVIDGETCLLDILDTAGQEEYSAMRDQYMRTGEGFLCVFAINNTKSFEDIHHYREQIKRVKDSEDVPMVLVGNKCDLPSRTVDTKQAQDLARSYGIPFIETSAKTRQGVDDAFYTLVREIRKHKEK

Structure (SMILES) | IC50 [1] | IC50 [2] | solubility at 24 h [3, 6] | solubility at 24 h [3, 7] | IC50 [4] | IC50 [5]
C[C@H](Oc1nc(-c2onc3c2CCC[C@@]32CCCc3sc(N)c(C#N)c32)nc2c1n(C)c(=O)n2[C@@H]1CCOC1)[C@@H]1C[C@H](F)CN1C [I-27] | 2 nM | 26 nM | > 153 µg/mL | 9 µg/mL (≈ 13.9 µM) | 13 nM | 55 nM
C[C@H](Oc1nc(-c2onc3c2CCC[C@@]32CCCc3sc(N)c(C#N)c32)nc2c1n(C)c(=O)n2[C@@H]1CCOC1)[C@@H]1C[C@@H]2C[C@@H]2N1C [I-28] | 4 nM | 26 nM | > 166 µg/mL | 16 µg/mL (≈ 24.9 µM) | 12 nM | 53 nM
C[C@H](Oc1nc(-c2onc3c2CCC[C@@]32CCCc3sc(N)c(C#N)c32)nc2c1n(C)c(=O)n2[C@@]12COC[C@@H]1C2)[C@@H]1CCCN1C [I-29] | 1 nM | 2 nM | > 161 µg/mL | > 165 µg/mL | 1 nM | 14 nM
CCn1c(=O)n([C@@H]2CCCOC2)c2nc(-c3onc4c3CCC[C@@]43CCCc4sc(N)c(C#N)c43)nc(O[C@@H](C)[C@@H]3CCCN3C)c21 [I-30] | 2 nM | 11 nM | > 154 µg/mL | 88 µg/mL (≈ 134 µM) | 5 nM | 29 nM
CO[C@H]1C[C@@H](n2c(=O)n(C)c3c(O[C@@H](C)[C@@H]4CCCN4C)nc(-c4onc5c4CCC[C@@]54CCCc5sc(N)c(C#N)c54)nc32)C1 [I-31] | 1 nM | 52 nM | > 158 µg/mL | > 148 µg/mL | 23 nM | 37 nM
CC(C)n1c(=O)n([C@@H]2CCOC2)c2nc(-c3onc4c3CCC[C@@]43CCCc4sc(N)c(C#N)c43)nc(O[C@@H](C)[C@@H]3CCCN3C)c21 [I-32] | 2 nM | 23 nM | > 155 µg/mL | 63 µg/mL (≈ 95.6 µM) | 13 nM | 58 nM
CCn1c(=O)n([C@@H]2CCCOC2)c2nc(-c3onc4c3CCC[C@@]43CCCc4sc(N)c(C#N)c43)nc(OC[C@@]34CCCN3C[C@H](F)C4)c21 [I-33] | 126 nM | 1600 nM | > 163 µg/mL | 8 µg/mL (≈ 11.6 µM) | 739 nM | 3550 nM
CCn1c(=O)n([C@@H]2CCCOC2)c2nc(-c3onc4c3CCC[C@@]43CCCc4sc(N)c(C#N)c43)nc(OCC34CCCN3CCC4)c21 [I-34] | 22 nM | 1180 nM | > 158 µg/mL | > 148 µg/mL | 553 nM | 3020 nM
CCn1c(=O)n([C@@H]2CCCOC2)c2nc(-c3onc4c3CCC[C@@]43CCCc4sc(N)c(C#N)c43)nc(O[C@@H](C)C34CCCN3CCC4)c21 [I-36] | 2 nM | 31 nM | 135 µg/mL (≈ 197 µM) | 94 µg/mL (≈ 137 µM) | 18 nM | 95 nM
C[C@H](Oc1nc(-c2onc3c2CCC[C@@]32CCCc3sc(N)c(C#N)c32)nc2c1N(C)C(=O)CN2[C@@H]1CCOC1)[C@@H]1CCCN1C [I-37] | 8 nM | 265 nM | > 151 µg/mL | 113 µg/mL (≈ 175 µM) | 127 nM | 305 nM
C[C@H](Oc1nc(-c2onc3c2CCC[C@@]32CCCc3sc(N)c(C#N)c32)nc2c1ncn2[C@@H]1CCOC1)[C@@H]1CCCN1C [I-38] | 2 nM | 33 nM | > 144 µg/mL | > 139 µg/mL | 20 nM | 28 nM
Cc1nc2c(O[C@@H](C)[C@@H]3CCCN3C)nc(-c3onc4c3CCC[C@@]43CCCc4sc(N)c(C#N)c43)nc2n1[C@@H]1CCOC1 [I-39] | 1 nM | 24 nM | > 147 µg/mL | > 137 µg/mL | 12 nM | 24 nM
Cc1cc2c(O[C@@H](C)[C@@H]3CCCN3C)nc(-c3onc4c3CCC[C@@]43CCCc4sc(N)c(C#N)c43)nc2n1[C@@H]1CCOC1 [I-40] | 2 nM | 23 nM | > 124 µg/mL | 44 µg/mL (≈ 71.7 µM) | 14 nM | 28 nM
Cc1cn([C@@H]2CCOC2)c2nc(-c3onc4c3CCC[C@@]43CCCc4sc(N)c(C#N)c43)nc(O[C@@H](C)[C@@H]3CCCN3C)c12 [I-41] | 3 nM | 122 nM | > 137 µg/mL | 32 µg/mL (≈ 52.1 µM) | 78 nM | 106 nM
Cc1nn([C@@H]2CCOC2)c2nc(-c3onc4c3CCC[C@@]43CCCc4sc(N)c(C#N)c43)nc(O[C@@H](C)[C@@H]3CCCN3C)c12 [I-42] | 3 nM | 17 nM | > 145 µg/mL | 112 µg/mL (≈ 182 µM) | 11 nM | 37 nM
C[C@H](Oc1nc(-c2onc3c2CCC[C@@]32CCCc3sc(N)c(C#N)c32)nc2c1cnn2[C@@H]1CCOC1)[C@@H]1CCCN1C [I-43] | 2 nM | 32 nM | > 147 µg/mL | 113 µg/mL (≈ 188 µM) | 18 nM | 49 nM
C[C@@H]1COC[C@H](n2c(=O)n(C)c3c(O[C@@H](C)[C@@H]4CCCN4C)nc(-c4onc5c4CCC[C@@]54CCCc5sc(N)c(C#N)c54)nc32)C1 [I-44] | 1 nM | 3 nM | > 157 µg/mL | 2 µg/mL (≈ 3.04 µM) | 2 nM | 17 nM
C[C@H](Oc1nc(-c2onc3c2CCC[C@@]32CCCc3sc(N)c(C#N)c32)nc2c1n(C)c(=O)n2[C@@]12COC[C@@H]1C2)[C@@H]1CC[C@H](C)N1C [I-45] | 1 nM | 1 nM | > 135 µg/mL | 85 µg/mL (≈ 129 µM) | 1 nM | 6 nM
CO[C@@H]1C[C@@H]([C@H](C)Oc2nc(-c3onc4c3CCC[C@@]43CCCc4sc(N)c(C#N)c43)nc3c2n(C)c(=O)n3[C@@]23COC[C@@H]2C3)N(C)C1 [I-46] | 1 nM | 2 nM | > 150 µg/mL | 67 µg/mL (≈ 99.6 µM) | 1 nM | 15 nM
C[C@H](Oc1nc(-c2onc3c2CCC[C@@]32CCCc3sc(N)c(C#N)c32)nc2c1n(C)c(=O)n2[C@H]1CO[C@@H](C)C1)[C@@H]1CC[C@H](C)N1C [I-50] | 4 nM | 3 nM | 124 µg/mL (≈ 188 µM) | 103 µg/mL (≈ 156 µM) | 1 nM | 4 nM
CO[C@H]1CCN(C)[C@@H]1[C@H](C)Oc1nc(-c2onc3c2CCC[C@@]32CCCc3sc(N)c(C#N)c32)nc2c1n(C)c(=O)n2[C@H]1COC[C@@H](C)C1 [I-51] | 2 nM | 5 nM | > 153 µg/mL | < 1 µg/mL | 2 nM | 26 nM
CO[C@@H]1C[C@@H]([C@H](C)Oc2nc(-c3onc4c3CCC[C@@]43CCCc4sc(N)c(C#N)c43)nc3c2n(C)c(=O)n3[C@H]2COC[C@@H](C)C2)N(C)C1 [I-52] | 1 nM | 8 nM | > 153 µg/mL | < 1 µg/mL | 3 nM | 28 nM
